Measurements taken from PMC11819963, “In Vitro CO-Releasing and Antioxidant Properties of Sulfonamide-Based CAI-CORMs in a H2O2-Stimulated Human Achilles Tendon-Derived Cell Model” (Molecules, 2025).

Tests used:
[1] = tested on: H2O2-stimulated human Achilles tendon-derived tenocytes; assay: collagen type I secretion (ELISA); format: cell-based; conditions: 48 h, after H2O2 100 µM for 3 h, compared to untreated cells, normalised on MTT
Experimental: (§1) Compound A and acetazolamide were administered as reference compounds.
Amounts of collagen type I secreted in supernatants harvested from 96 well plates were detected by a human collagen type 1 ELISA kit (Cosmo Bio Co., Ltd., Tokyo, Japan; cat. no. ACE-EC1-E105-EX). Samples were pipetted into suitably coated wells as described elsewhere. Each ELISA test was performed three times in duplicates per experimental condition (n = 6). The concentration of collagen type I (µg/mL) was calculated using a standard curve generated with a specific standard provided by the manufacturer by means of the Prism 5.0 software (GraphPad, San Diego, CA, USA).

[2] = tested on: Human Achilles tendon-derived tenocytes; assay: cell metabolic activity (MTT test), basal conditions; format: cell-based; conditions: 6.25–50 µM; for cell metabolic activity (MTT): vs untreated control
Experimental: (§3) Human Achilles tendon-derived tenocytes (#TEN-F) were purchased by ZenBio Inc. (Durham, NC, USA) and maintained in complete alpha-MEM (EuroClone, Milan, Italy) supplemented with 10% of heat-inactivated FBS (Gibco, Thermo Fisher Scientific, Waltham, MA, USA) and 1% penicillin/streptomycin (EuroClone, Milan, Italy) at 37 °C and 5% CO2 and used from passage 3 up to passage 6.
(§4) Cells were seeded in 96-well plates (0.5 × 10^4/well) or 6-well plates (0.5 × 10^5/well) (ThermoFisher Scientific, Waltham, MA, USA) and left to adhere overnight at 37 °C and 5% CO2. For cell metabolic activity experiments (MTT test), tenocytes were treated with increasing concentrations of compounds (range 0–50 µM) for 24 and 48 h. Compounds were dissolved in DMSO to obtain a 200 mM stock solution, and they were afterwards diluted in complete alpha-MEM (DMSO final concentration = 0.1%) for further analyses. In a second set of MTT experiments, tenocytes were pre-incubated with 100 µM H2O2 for 3 h. After that, the pre-incubation medium was discarded and replaced with a fresh one containing the proper compound at increasing concentrations for 24 and 48 h. At the established time points, samples were processed for further analyses.
(§5) Tenocytes were seeded in 96 well tissue culture-treated plates (Falcon®, Corning Incorporated, Brooklyn, NY, USA) at 0.5 × 10^4 cells/well. Untreated cells (0 µM) were set as control (100% of cell metabolic activity). At the established time points, the exposure media were replaced by fresh medium containing 3-(4,5-dimethylthiazol-2-yl)-2,5-diphenyltetrazolium bromide (MTT) 0.5 mg/mL (Merck, Darmstadt, Germany) and processed as elsewhere reported [18]. The optical density in each well was measured using a spectrophotometer (Thermo Fisher Scientific, Waltham, MA, USA) at a wavelength of 540 nm. Each experiment was performed three times in triplicates per experimental condition (n = 9).

[3] = tested on: H2O2-stimulated human Achilles tendon-derived tenocytes; assay: cell cycle analysis by flow cytometry (propidium iodide); format: cell-based; conditions: 48 h, after H2O2 100 µM for 3 h
Experimental: as §1
The progression of the cell cycle was assessed by flow cytometry, as already reported. Briefly, after the pre-incubation with H2O2 (100 µM for 3 h) and the exposure time (48 h), approximately 0.5 × 10^5 cells/experimental condition were fixed with cold ethanol 70% v/v and afterwards stained with 1 mg/mL propidium iodide (PI) (final concentration 10 µg/mL) and 10 mg/mL RNAse (final concentration 100 µg/mL) and kept overnight at 4 °C in the dark. Each experiment was performed two times in triplicates per experimental condition (n = 6). Cell cycle profiles (1 × 10^4 events/sample) were finally analysed with a CytoFLEX flow cytometer (Beckman Coulter, Indianapolis, IN, USA), and data were quantified using the ModFit LT™ 4.0 software (De Novo Software, Glendale, CA, USA).

[4] = tested on: H2O2-stimulated human Achilles tendon-derived tenocytes; assay: cell metabolic activity (MTT test), pre-incubation with H2O2; format: cell-based; conditions: 6.25–50 µM, after H2O2 100 µM for 3 h
Experimental: as §3, §4, §5

[5] = tested on: reduced myoglobin (deoxy-Mb); assay: myoglobin carbonylation assay (CO release); parameters: species or system horse; conditions: for CO-release profile (MbCO formed over time): 1:1 and 1:6 CORM:Mb, up to 300 min, comparison within series; for MbCO formed: after 210 min of incubation, 1:1 CORM–Mb ratio (about 20 μM CORM); for CO units released: after 300 min of incubation with Mb, 37 °C
Experimental: To determine the CO-releasing properties of the designed compounds, the myoglobin carbonylation assay was employed, with some deviations from the standard protocol, as previously reported. The analysed compounds were incubated with reduced myoglobin (deoxy-Mb), and spectra were recorded every 30 min up to 300 min. The release of CO was assessed by evaluating the formation of carbonylated myoglobin (Mb-CO) over time (Figure 3). […] The releasing properties of the compounds were also expressed as CO units released after 300 min of incubation with Mb, as reported in Figure S1 (Supplementary Information File).
All the employed reagents were of analytical grade and acquired from Merck (Milan, Italy). Gaseous CO was obtained from Rivoira (Milan, Italy). A Shimadzu UV1900 UV-Vis Spectrophotometer from 275 to 700 nm at the scanning rate of 200 nm/min was used to record UV-Vis absorption spectra in a disposable plastic cuvette (path length 0.44 cm). The second derivative spectra were generated with the Origin Lab software, and the Savitzky–Golay method was applied using 25 data points for the differentiation process. Neither an increase nor a decrease in the number of points caused changes in the wavelength or in the bandwidth. Lyophilised horse heart Mb was dissolved in phosphate-buffered saline flushed with N2 (PBS, 0.01 M, pH 7.4 to a 20–22 μM final concentration). Two millilitres of this freshly prepared stock solution were placed in a cuvette to record the UV-Vis absorption spectrum of met-Mb. Next, the solutions were divided into two halves: 10 μL of sodium dithionite (30 mg/mL) was added to the first half (reference), and the UV–Vis spectrum of deoxy-Mb was registered. After that, the solution was flushed with CO gas, and the Mb-CO spectrum was acquired. Sodium dithionite was added to the second half (sample), and a spectrum was recorded. Afterwards, a CORM DMSO solution was added to a final CORM concentration of 1.67 μM, 3.33 μM or 20 μM and gently mixed. The solution was covered with 300 μL of light mineral oil to avoid CO escaping and oxygenation of Mb, and the absorption spectrum was recorded at t = 0. Spectra were acquired every 30 min for 300 min, keeping the sample at 37 °C. When necessary, a freshly prepared sodium dithionite solution was added. After 300 min, the total Mb concentration at the end of the assay was determined by flushing the sample with CO gas. Mb-CO concentration at each time point was determined, as previously reported. Each experiment was replicated three times, and the data were expressed as mean ± SEM.

[6] = biological target: hCA IX (Homo sapiens, UniProt Q16790); assay: stopped-flow CO2 hydrase assay, hCA IX; format: biochemical; conditions: mean from three assays, errors ±5–10%
Experimental: (§2) The CO2 concentrations ranged from 1.7 to 17 mM for the determination of the kinetic parameters and inhibition constants. […] The uncatalysed rates were determined in the same manner and subtracted from the total observed rates. […] The inhibition constants were obtained by non-linear least-squares methods using PRISM 3 and the Cheng–Prusoff equation and represent the mean from at least three different determinations.

[7] = biological target: hCA II (Homo sapiens, UniProt P00918); assay: stopped-flow CO2 hydrase assay, hCA II; format: biochemical; conditions: mean from three assays, errors ±5–10%
Experimental: as §2

[8] = biological target: hCA I (Homo sapiens, UniProt P00915); conditions: stopped-flow CO2 hydrase assay; cells marked a; cited from earlier work
[9] = biological target: hCA XII (Homo sapiens, UniProt O43570); assay: stopped-flow CO2 hydrase assay, hCA XII; format: biochemical; conditions: mean from three assays, errors ±5–10%
Experimental: as §2

Chain of hCA XII (O43570 25-354): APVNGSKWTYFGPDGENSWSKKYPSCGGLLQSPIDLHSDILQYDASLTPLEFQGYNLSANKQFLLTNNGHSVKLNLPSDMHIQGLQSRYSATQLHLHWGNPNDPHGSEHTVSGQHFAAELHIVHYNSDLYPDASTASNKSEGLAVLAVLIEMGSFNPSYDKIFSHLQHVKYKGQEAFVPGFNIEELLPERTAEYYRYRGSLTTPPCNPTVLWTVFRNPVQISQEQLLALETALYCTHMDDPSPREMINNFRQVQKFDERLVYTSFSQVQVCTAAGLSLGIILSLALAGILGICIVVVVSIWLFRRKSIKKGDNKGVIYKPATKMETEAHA
Chain of hCA I (P00915 whole entry): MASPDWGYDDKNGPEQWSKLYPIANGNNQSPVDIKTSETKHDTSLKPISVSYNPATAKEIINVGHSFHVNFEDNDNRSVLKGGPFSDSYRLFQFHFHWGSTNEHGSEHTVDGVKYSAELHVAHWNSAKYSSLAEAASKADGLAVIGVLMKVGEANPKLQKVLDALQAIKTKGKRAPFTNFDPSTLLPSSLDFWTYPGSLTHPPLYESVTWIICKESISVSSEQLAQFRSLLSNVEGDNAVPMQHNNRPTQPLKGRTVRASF

Compound | collagen type I secretion [1] | cell metabolic activity (MTT) ([2]; 48 h exposure) | cell metabolic activity (MTT) ([4]; 24 h exposure) | cell metabolic activity (MTT) ([4]; 48 h exposure) | MbCO formed [5] | other results
C#CCNc1ccc(S(N)(=O)=O)cc1 [A, 4-(prop-2-ynylamino)benzenesulfonamide, reference compound] | do not enhance the secretion | still ineffective | – | – | – | cell cycle progression (H2O2-induced G2 increase) [3]: ineffective
CC(=O)Nc1nnc(S(N)(=O)=O)s1 [AAZ, acetazolamide, reference compound] | do not enhance the secretion | still ineffective | – | – | – | cytotoxicity (MTT) ([4]; 24 h exposure): cytotoxicity at the highest dose; cytotoxicity (MTT) ([4]; 48 h exposure): cytotoxic at the highest concentration; cell cycle progression (H2O2-induced G2 increase) [3]: ineffective
CCC#CCNc1ccc(S(N)(=O)=O)cc1.[C-]#[O+].[C-]#[O+].[C-]#[O+].[C-]#[O+].[C-]#[O+].[C-]#[O+].[Co].[Co] [3a, 4-(pent-2-yn-1-ylamino)benzenesulfonamide hexacarbonyldicobalt] | – | – | – | – | – | cytotoxicity (MTT) ([4]; 24 h exposure): cytotoxic at the highest concentrations used; cytotoxicity (MTT) ([2]; 24 h exposure): reveal cytotoxicity; CO-release profile (MbCO formed over time) [5]: superimposable profile of MbCO formed over time
CCC#CCN(CC#CCC)c1ccc(S(N)(=O)=O)cc1.[C-]#[O+].[C-]#[O+].[C-]#[O+].[C-]#[O+].[C-]#[O+].[C-]#[O+].[Co].[Co] [3c, 4-(Di(pent-2-yn-1-yl)amino)benzenesulfonamide hexacarbonyldicobalt] | – | – | – | – | – | cytotoxicity (MTT) ([2]; 48 h exposure): cytotoxic, already at the lowest concentration
CC#CCN(CC#CC)c1ccc(S(N)(=O)=O)cc1.[C-]#[O+].[C-]#[O+].[C-]#[O+].[C-]#[O+].[C-]#[O+].[C-]#[O+].[Co].[Co] [2c, 4-(Di(but-2-yn-1-yl)amino)benzenesulfonamide hexacarbonyldicobalt] | – | constantly effective on cell metabolic activity over the concentrations | best test compounds able to increase cell metabolic activity | the best compound in terms of cell metabolic activity increase | – | cell metabolic activity (MTT) ([2]; 24 h exposure): significantly increase cell metabolic activity
C#CCNc1ccc(S(N)(=O)=O)cc1.[C-]#[O+].[C-]#[O+].[C-]#[O+].[C-]#[O+].[C-]#[O+].[C-]#[O+].[Co].[Co] [1a, 4-(prop-2-ynylamino)benzenesulfonamide hexacarbonyldicobalt] | dramatically increases its secretion almost three times | well increases cell metabolic activity at the lower concentrations | – | – | 9.05 µM | KI hCA IX [6]: ineffective; Ki [7]: 215 nM; cytotoxicity (MTT) ([4]; 24 h exposure): cytotoxic at the highest concentrations used; cytotoxicity (MTT) ([4]; 48 h exposure): reveal cytotoxicity at the highest concentrations; cell metabolic activity (MTT) ([2]; 24 h exposure): significantly increase cell metabolic activity; Ki [8]: 901 nM; CO-release profile (MbCO formed over time) [5]: the fastest and most efficient releaser among the series; CO units released ([5]; 1:6 CORM:Mb ratio (3.33 μM CORM)): 1.6 CO units
C#CCOc1ccccc1.[C-]#[O+].[C-]#[O+].[C-]#[O+].[C-]#[O+].[C-]#[O+].[C-]#[O+].[Co].[Co] [CO-B, (Prop-2-yn-1-yloxy)benzene hexacarbonyldicobalt, reference compound] | – | extremely active in terms of cell metabolic activity increase | capable of increasing cell metabolic activity | can increase cell metabolic activity over the concentration range | 4 µM | –
CCC#CCOc1ccc(S(N)(=O)=O)cc1.[C-]#[O+].[C-]#[O+].[C-]#[O+].[C-]#[O+].[C-]#[O+].[C-]#[O+].[Co].[Co] [3b, 4-(Pent-2-yn-1-yloxy)benzenesulfonamide hexacarbonyldicobalt] | – | – | – | – | – | cytotoxicity (MTT) ([2]; 48 h exposure): cytotoxic, already at the lowest concentration
C#CCOc1ccc(S(N)(=O)=O)cc1 [B, 4-(prop-2′-ynyloxy)benzenesulfonamide, reference compound] | – | still ineffective | – | – | – | –
CC#CCNc1ccc(S(N)(=O)=O)cc1.[C-]#[O+].[C-]#[O+].[C-]#[O+].[C-]#[O+].[C-]#[O+].[C-]#[O+].[Co].[Co] [2a, 4-(but-2-yn-1-ylamino)benzenesulfonamide hexacarbonyldicobalt] | – | increases tenocyte metabolic activity to a lesser extent than 1a | best test compounds able to increase cell metabolic activity | – | – | cell metabolic activity (MTT) ([2]; 24 h exposure): significantly increase cell metabolic activity; cytotoxicity (MTT) ([2]; 48 h exposure): biocompatible; CO-release profile (MbCO formed over time) [5]: superimposable profile of MbCO formed over time
C#CCN(CC#C)c1ccccc1.[C-]#[O+].[C-]#[O+].[C-]#[O+].[C-]#[O+].[C-]#[O+].[C-]#[O+].[Co].[Co] [CO-C, N,N-di(prop-2-yn-1-yl)aniline hexacarbonyldicobalt, reference compound] | – | extremely active in terms of cell metabolic activity increase | capable of increasing cell metabolic activity | increase cell metabolic activity only at 50 µM | 3.72 µM | –
C#CCNc1ccccc1.[C-]#[O+].[C-]#[O+].[C-]#[O+].[C-]#[O+].[C-]#[O+].[C-]#[O+].[Co].[Co] [CO-A, N-(prop-2-yn-1-yl)aniline hexacarbonyldicobalt, reference compound] | – | extremely active in terms of cell metabolic activity increase | capable of increasing cell metabolic activity | increase cell metabolic activity only at 50 µM | 8.1 µM | –
4-(Diprop-2′-ynylamino)benzenesulfonamide hexacarbonyldicobalt [1c] | weakly but significantly increases collagen type 1 secretion | constantly effective on cell metabolic activity over the concentrations | – | – | 3.66 µM | Ki [6]: 6.2 nM; Ki [9]: 7.5 nM; CO units released ([5]; 1:12 CORM:Mb ratio (1.67 μM CORM)): 2.3 CO units; cell cycle progression (H2O2-induced G2 increase) [3]: weakly but significantly counteract the H2O2-induced G2 increase
